Laboratory results published in PMC12624955, “Exploring diarylheptanoid derivatives to target LIMK1 as potential agents against colorectal cancer” (Journal of Enzyme Inhibition and Medicinal Chemistry, 2025).

Columns and labels:
HCT-116 = test: Sulforhodamine B assay (cell proliferation); assay type: cell-based; settings: Homo sapiens, SRB assay, 72 h, mean ± SD
Experimental: (§1) Colorectal cell line, HCT-116, was purchased from the Bioresource Collection and Research Centre (BCRC, Hsinchu, Taiwan), while HT-29 was obtained from the American Type Culture Collection (ATCC, Manassas, VA, USA). Both cell lines were maintained in McCoy’s 5 A medium (with L-glutamine and 2.2 g/L NaHCO3, M4892, Sigma) supplemented with 10% foetal bovine serum (Corning Incorporated, NY, USA) and 1% penicillin–streptomycin–amphotericin B (100 unit/ml penicillin G, 0.1 mg/ml streptomycin sulphate, 0.25 μg/ml amphotericin B, Corning Incorporated, NY, USA). All cultures were maintained in a humidified incubator at 37 °C with 5% CO2.
(§2) Cells were seeded in 96-well plates at a density of 3 × 10^3 cells/well in 100 μl of culture medium and treated with compounds at the indicated concentrations for 72 h. After treatment, cells were fixed with 10% trichloroacetic acid for 20 min and washed with H2O. The cells were then stained with 0.4% sulforhodamine B (SRB) in 1% acetic acid for 20 min, followed by two washes with 1% acetic acid. After the well-dried, the protein-bound dye was dissolved in 100 µl of 10 mM Tris base solution, and the absorbance was measured at 515 nm using an ELISA reader (Molecular Device, Sunnyvale, CA, USA).

HT-29 = test: Sulforhodamine B assay (cell proliferation); assay type: cell-based; settings: Homo sapiens, SRB assay, 72 h, mean ± SD
Experimental: as §1, §2

FGFR1 = molecular target: T1, FGFR1 (Homo sapiens, UniProt P11362); test: SelectScreen kinase panel, Z′-LYTE kinase assay; assay type: biochemical; settings: read-out: Inhibition percentage at 1 μM
T1 construct: purchased Thermo Fisher Scientific SelectScreen
Experimental: (§3) Kinase panel screening was carried out using the SelectScreen Kinase Assay (Thermo Fisher Scientific, Waltham, MA, USA). Three complementary assay formats were applied: the Z′-LYTE kinase assay, LanthaScreen Eu kinase binding assay, and Adapta Universal kinase assay. The kinases selected for this study and the corresponding assay formats are summarised in Supplementary Table S1.
(§4) The Z′-LYTE Kinase Assay (Thermo Fisher Scientific, Waltham, MA, USA) was used to evaluate selected kinases’ activity, according to the manufacturer’s instructions (https://www.thermofisher.com/tw/zt/home/industrial/pharma-biopharma/drug-discovery-development/target-and-lead-identification-and-validation/kinasebiology/kinase-activity-assays/z-lyte/z-lyte-reactivity-table.html). This endpoint assay quantifies kinase activity by detecting peptide substrate phosphorylation. Briefly, a 2× mixture of selected kinase and relevant substrate was prepared in kinase buffer (0.01% polyoxyethylene lauryl ether (BRIJ-35), 50 mM 4-(2-hydroxyethyl)-1-piperazineethanesulfonic acid (HEPES), pH 7.5, 1 mM ethylene glycol-bis(β-aminoethyl ether)-N,N,N′,N′-tetraacetic acid (EGTA), and 10 mM MgCl2). After 1 h incubation at room temperature, 5 μl of 1:128 diluted development reagent solution was added, followed by an additional 1 h incubation. Fluorescence was recorded using a multimode plate reader.

MARK3 = molecular target: T2, MARK3 (Homo sapiens, UniProt P27448); test: SelectScreen kinase panel, Z′-LYTE kinase assay; assay type: biochemical; settings: read-out: Inhibition percentage at 1 μM
T2 construct: purchased Thermo Fisher Scientific SelectScreen
Experimental: as §3, §4

AKT1 (PKB alpha) = molecular target: T3, AKT1 (PKB alpha) (Homo sapiens, UniProt P31749); test: SelectScreen kinase panel, Z′-LYTE kinase assay; assay type: biochemical; settings: read-out: Inhibition percentage at 1 μM
T3 construct: purchased Thermo Fisher Scientific SelectScreen
Experimental: as §3, §4

PAK2 (PAK65) = molecular target: T4, PAK2 (PAK65) (Homo sapiens, UniProt Q13177); test: SelectScreen kinase panel, Z′-LYTE kinase assay; assay type: biochemical; settings: read-out: Inhibition percentage at 1 μM
T4 construct: purchased Thermo Fisher Scientific SelectScreen
Experimental: as §3, §4

CSNK1G1 (CK1 gamma 1) = molecular target: T5, CSNK1G1 (CK1 gamma 1) (Homo sapiens, UniProt Q9HCP0); test: SelectScreen kinase panel, Z′-LYTE kinase assay; assay type: biochemical; settings: read-out: Inhibition percentage at 1 μM
T5 construct: purchased Thermo Fisher Scientific SelectScreen
Experimental: as §3, §4

MAPK3 (ERK1) = molecular target: T6, MAPK3 (ERK1) (Homo sapiens, UniProt P27361); test: SelectScreen kinase panel, Z′-LYTE kinase assay; assay type: biochemical; settings: read-out: Inhibition percentage at 1 μM
T6 construct: purchased Thermo Fisher Scientific SelectScreen
Experimental: as §3, §4

CSNK1D (CK1 delta) = molecular target: T7, CSNK1D (CK1 delta) (Homo sapiens, UniProt P48730); test: SelectScreen kinase panel, Z′-LYTE kinase assay; assay type: biochemical; settings: read-out: Inhibition percentage at 1 μM
T7 construct: purchased Thermo Fisher Scientific SelectScreen
Experimental: as §3, §4

PLK2 = molecular target: T8, PLK2 (Homo sapiens, UniProt Q9NYY3); test: SelectScreen kinase panel, Z′-LYTE kinase assay; assay type: biochemical; settings: read-out: Inhibition percentage at 1 μM
T8 construct: purchased Thermo Fisher Scientific SelectScreen
Experimental: as §3, §4

IKBKB (IKK beta) = molecular target: T9, IKBKB (IKK beta) (Homo sapiens, UniProt O14920); test: SelectScreen kinase panel, Z′-LYTE kinase assay; assay type: biochemical; settings: read-out: Inhibition percentage at 1 μM
T9 construct: purchased Thermo Fisher Scientific SelectScreen
Experimental: as §3, §4

SRC = molecular target: T10, SRC (Homo sapiens, UniProt P12931); test: SelectScreen kinase panel, Z′-LYTE kinase assay; assay type: biochemical; settings: read-out: Inhibition percentage at 1 μM
T10 construct: purchased Thermo Fisher Scientific SelectScreen
Experimental: as §3, §4

ERBB4 (HER4) = molecular target: T11, ERBB4 (HER4) (Homo sapiens, UniProt Q15303); test: SelectScreen kinase panel, Z′-LYTE kinase assay; assay type: biochemical; settings: read-out: Inhibition percentage at 1 μM
T11 construct: purchased Thermo Fisher Scientific SelectScreen
Experimental: as §3, §4

ROCK1 = molecular target: T12, ROCK1 (Homo sapiens, UniProt Q13464); test: SelectScreen kinase panel, Z′-LYTE kinase assay; assay type: biochemical; settings: read-out: Inhibition percentage at 1 μM
T12 construct: purchased Thermo Fisher Scientific SelectScreen
Experimental: as §3, §4

CDK2/cyclin A = molecular target: T13, CDK2/cyclin A (Homo sapiens, UniProt P24941); test: SelectScreen kinase panel, Z′-LYTE kinase assay; assay type: biochemical; settings: read-out: Inhibition percentage at 1 μM
T13 construct: purchased Thermo Fisher Scientific SelectScreen
Experimental: as §3, §4

PIM1 = molecular target: T14, PIM1 (Homo sapiens, UniProt P11309); test: SelectScreen kinase panel, Z′-LYTE kinase assay; assay type: biochemical; settings: read-out: Inhibition percentage at 1 μM
T14 construct: purchased Thermo Fisher Scientific SelectScreen
Experimental: as §3, §4

PRKACA (PKA) = molecular target: T15, PRKACA (PKA) (Homo sapiens, UniProt P17612); test: SelectScreen kinase panel, Z′-LYTE kinase assay; assay type: biochemical; settings: read-out: Inhibition percentage at 1 μM
T15 construct: purchased Thermo Fisher Scientific SelectScreen
Experimental: as §3, §4

MINK1 = molecular target: T16, MINK1 (Homo sapiens, UniProt Q8N4C8); test: SelectScreen kinase panel, Z′-LYTE kinase assay; assay type: biochemical; settings: read-out: Inhibition percentage at 1 μM
T16 construct: purchased Thermo Fisher Scientific SelectScreen
Experimental: as §3, §4

DCAMKL1 (DCLK1) = molecular target: T17, DCAMKL1 (DCLK1) (Homo sapiens, UniProt O15075); test: SelectScreen kinase panel, Z′-LYTE kinase assay; assay type: biochemical; settings: read-out: Inhibition percentage at 1 μM
T17 construct: purchased Thermo Fisher Scientific SelectScreen
Experimental: as §3, §4

CAMK2B (CaMKII beta) = molecular target: T18, CAMK2B (CaMKII beta) (Homo sapiens, UniProt Q13554); test: SelectScreen kinase panel, Z′-LYTE kinase assay; assay type: biochemical; settings: read-out: Inhibition percentage at 1 μM
T18 construct: purchased Thermo Fisher Scientific SelectScreen
Experimental: as §3, §4

DYRK1B = molecular target: T19, DYRK1B (Homo sapiens, UniProt Q9Y463); test: SelectScreen kinase panel, Z′-LYTE kinase assay; assay type: biochemical; settings: read-out: Inhibition percentage at 1 μM
T19 construct: purchased Thermo Fisher Scientific SelectScreen
Experimental: as §3, §4

HIPK1 (Myak) = molecular target: T20, HIPK1 (Myak) (Homo sapiens, UniProt Q86Z02); test: SelectScreen kinase panel, Z′-LYTE kinase assay; assay type: biochemical; settings: read-out: Inhibition percentage at 1 μM
T20 construct: purchased Thermo Fisher Scientific SelectScreen
Experimental: as §3, §4

STK3 (MST2) = molecular target: T21, STK3 (MST2) (Homo sapiens, UniProt Q13188); test: SelectScreen kinase panel, Z′-LYTE kinase assay; assay type: biochemical; settings: read-out: Inhibition percentage at 1 μM
T21 construct: purchased Thermo Fisher Scientific SelectScreen
Experimental: as §3, §4

MKNK1 (MNK1) = molecular target: T22, MKNK1 (MNK1) (Homo sapiens, UniProt Q9BUB5); test: SelectScreen kinase panel, Z′-LYTE kinase assay; assay type: biochemical; settings: read-out: Inhibition percentage at 1 μM
T22 construct: purchased Thermo Fisher Scientific SelectScreen
Experimental: as §3, §4

IRAK4 = molecular target: T23, IRAK4 (Homo sapiens, UniProt Q9NWZ3); test: SelectScreen kinase panel, Z′-LYTE kinase assay; assay type: biochemical; settings: read-out: Inhibition percentage at 1 μM
T23 construct: purchased Thermo Fisher Scientific SelectScreen
Experimental: as §3, §4

PRKCA (PKC alpha) = molecular target: T24, PRKCA (PKC alpha) (Homo sapiens, UniProt P17252); test: SelectScreen kinase panel, Z′-LYTE kinase assay; assay type: biochemical; settings: read-out: Inhibition percentage at 1 μM
T24 construct: purchased Thermo Fisher Scientific SelectScreen
Experimental: as §3, §4

MAP3K9 (MLK1) = molecular target: T25, MAP3K9 (MLK1) (Homo sapiens, UniProt P80192); test: SelectScreen kinase panel, Z′-LYTE kinase assay; assay type: biochemical; settings: read-out: Inhibition percentage at 1 μM
T25 construct: purchased Thermo Fisher Scientific SelectScreen
Experimental: as §3, §4

LCK = molecular target: T26, LCK (Homo sapiens, UniProt P06239); test: SelectScreen kinase panel, Z′-LYTE kinase assay; assay type: biochemical; settings: read-out: Inhibition percentage at 1 μM
T26 construct: purchased Thermo Fisher Scientific SelectScreen
Experimental: as §3, §4

T11 sequence (Q15303 26-1308): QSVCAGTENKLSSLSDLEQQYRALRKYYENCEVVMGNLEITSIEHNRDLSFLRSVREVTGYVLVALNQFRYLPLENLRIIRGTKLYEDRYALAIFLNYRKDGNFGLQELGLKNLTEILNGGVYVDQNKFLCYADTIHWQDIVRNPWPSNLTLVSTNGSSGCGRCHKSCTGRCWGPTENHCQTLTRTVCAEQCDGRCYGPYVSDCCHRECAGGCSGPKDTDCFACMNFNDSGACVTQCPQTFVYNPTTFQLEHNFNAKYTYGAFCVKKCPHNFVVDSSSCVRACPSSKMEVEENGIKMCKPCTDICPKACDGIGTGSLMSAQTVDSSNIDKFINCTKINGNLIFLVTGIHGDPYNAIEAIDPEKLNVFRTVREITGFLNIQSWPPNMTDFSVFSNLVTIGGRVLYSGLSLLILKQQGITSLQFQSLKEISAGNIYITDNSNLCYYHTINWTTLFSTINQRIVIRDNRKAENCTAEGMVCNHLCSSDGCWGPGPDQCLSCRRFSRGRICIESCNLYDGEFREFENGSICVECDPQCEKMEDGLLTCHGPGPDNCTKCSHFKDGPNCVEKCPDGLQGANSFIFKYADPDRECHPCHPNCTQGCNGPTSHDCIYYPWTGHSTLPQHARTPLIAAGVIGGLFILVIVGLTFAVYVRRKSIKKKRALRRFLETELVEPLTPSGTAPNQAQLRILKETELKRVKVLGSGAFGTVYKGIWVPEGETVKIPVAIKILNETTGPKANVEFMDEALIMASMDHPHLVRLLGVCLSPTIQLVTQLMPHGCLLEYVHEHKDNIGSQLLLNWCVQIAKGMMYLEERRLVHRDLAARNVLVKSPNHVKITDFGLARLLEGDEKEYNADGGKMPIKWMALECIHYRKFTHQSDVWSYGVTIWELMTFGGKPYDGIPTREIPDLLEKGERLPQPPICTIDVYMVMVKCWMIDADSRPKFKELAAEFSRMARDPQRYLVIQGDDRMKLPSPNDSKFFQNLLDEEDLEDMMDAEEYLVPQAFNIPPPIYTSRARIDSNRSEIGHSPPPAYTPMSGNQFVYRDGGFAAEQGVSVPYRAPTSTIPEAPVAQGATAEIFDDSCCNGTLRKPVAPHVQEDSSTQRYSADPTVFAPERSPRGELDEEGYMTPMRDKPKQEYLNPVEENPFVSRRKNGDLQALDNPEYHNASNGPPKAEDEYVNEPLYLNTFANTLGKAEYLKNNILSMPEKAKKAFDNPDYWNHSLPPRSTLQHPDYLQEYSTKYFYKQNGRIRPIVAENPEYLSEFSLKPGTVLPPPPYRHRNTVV
T26 sequence (P06239 whole entry): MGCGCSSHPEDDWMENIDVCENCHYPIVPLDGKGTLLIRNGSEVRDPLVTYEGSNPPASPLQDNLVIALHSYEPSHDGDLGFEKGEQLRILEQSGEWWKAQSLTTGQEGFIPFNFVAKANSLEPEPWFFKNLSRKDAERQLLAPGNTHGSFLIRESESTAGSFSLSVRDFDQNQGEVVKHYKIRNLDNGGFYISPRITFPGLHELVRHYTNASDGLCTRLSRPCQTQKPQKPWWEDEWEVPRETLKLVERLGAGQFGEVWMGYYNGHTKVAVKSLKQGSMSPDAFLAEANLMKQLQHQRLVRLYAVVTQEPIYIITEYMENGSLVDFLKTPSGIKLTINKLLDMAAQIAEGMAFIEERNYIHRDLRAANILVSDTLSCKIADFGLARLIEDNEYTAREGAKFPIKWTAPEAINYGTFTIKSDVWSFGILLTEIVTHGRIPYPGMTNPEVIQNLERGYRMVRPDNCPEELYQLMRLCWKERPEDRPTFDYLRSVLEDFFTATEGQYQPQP
T3 sequence (P31749 whole entry): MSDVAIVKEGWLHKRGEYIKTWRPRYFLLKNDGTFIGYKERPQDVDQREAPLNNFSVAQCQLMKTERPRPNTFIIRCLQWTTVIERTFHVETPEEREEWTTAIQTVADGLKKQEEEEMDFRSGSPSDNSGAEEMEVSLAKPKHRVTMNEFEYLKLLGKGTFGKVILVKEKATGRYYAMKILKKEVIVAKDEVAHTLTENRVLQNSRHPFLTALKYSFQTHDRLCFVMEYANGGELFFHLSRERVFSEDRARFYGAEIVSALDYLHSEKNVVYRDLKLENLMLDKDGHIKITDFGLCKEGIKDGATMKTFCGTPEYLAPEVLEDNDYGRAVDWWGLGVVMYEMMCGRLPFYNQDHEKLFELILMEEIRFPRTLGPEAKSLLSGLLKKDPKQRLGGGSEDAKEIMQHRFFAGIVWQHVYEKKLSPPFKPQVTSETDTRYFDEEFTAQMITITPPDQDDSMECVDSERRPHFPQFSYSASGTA
T4 sequence (Q13177 whole entry): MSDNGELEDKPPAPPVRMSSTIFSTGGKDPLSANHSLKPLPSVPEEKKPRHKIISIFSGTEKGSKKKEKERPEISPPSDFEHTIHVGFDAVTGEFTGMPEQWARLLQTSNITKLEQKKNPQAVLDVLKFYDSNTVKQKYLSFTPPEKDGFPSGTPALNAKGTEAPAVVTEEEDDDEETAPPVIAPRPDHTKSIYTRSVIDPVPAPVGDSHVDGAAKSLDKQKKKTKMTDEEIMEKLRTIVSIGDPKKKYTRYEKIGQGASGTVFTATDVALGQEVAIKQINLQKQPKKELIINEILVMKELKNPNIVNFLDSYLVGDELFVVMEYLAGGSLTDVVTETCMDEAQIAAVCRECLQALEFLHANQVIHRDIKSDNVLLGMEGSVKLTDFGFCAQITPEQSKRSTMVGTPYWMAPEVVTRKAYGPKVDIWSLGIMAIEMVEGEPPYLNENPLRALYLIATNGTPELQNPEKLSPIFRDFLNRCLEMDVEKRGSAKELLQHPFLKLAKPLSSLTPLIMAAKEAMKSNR
T21 sequence (Q13188 whole entry): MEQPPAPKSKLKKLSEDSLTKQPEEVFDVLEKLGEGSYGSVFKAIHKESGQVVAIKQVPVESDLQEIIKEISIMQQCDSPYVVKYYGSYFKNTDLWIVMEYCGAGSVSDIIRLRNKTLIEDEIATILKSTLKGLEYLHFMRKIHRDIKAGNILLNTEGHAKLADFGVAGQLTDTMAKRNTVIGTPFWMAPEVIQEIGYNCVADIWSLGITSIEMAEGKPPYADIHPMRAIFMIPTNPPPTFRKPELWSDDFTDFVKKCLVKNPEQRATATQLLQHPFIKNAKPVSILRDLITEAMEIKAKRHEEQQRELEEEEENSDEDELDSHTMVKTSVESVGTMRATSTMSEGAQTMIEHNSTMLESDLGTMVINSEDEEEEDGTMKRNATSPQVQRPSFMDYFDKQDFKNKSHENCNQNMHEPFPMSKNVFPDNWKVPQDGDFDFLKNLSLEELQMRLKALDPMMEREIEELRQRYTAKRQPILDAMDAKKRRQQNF
T8 sequence (Q9NYY3 whole entry): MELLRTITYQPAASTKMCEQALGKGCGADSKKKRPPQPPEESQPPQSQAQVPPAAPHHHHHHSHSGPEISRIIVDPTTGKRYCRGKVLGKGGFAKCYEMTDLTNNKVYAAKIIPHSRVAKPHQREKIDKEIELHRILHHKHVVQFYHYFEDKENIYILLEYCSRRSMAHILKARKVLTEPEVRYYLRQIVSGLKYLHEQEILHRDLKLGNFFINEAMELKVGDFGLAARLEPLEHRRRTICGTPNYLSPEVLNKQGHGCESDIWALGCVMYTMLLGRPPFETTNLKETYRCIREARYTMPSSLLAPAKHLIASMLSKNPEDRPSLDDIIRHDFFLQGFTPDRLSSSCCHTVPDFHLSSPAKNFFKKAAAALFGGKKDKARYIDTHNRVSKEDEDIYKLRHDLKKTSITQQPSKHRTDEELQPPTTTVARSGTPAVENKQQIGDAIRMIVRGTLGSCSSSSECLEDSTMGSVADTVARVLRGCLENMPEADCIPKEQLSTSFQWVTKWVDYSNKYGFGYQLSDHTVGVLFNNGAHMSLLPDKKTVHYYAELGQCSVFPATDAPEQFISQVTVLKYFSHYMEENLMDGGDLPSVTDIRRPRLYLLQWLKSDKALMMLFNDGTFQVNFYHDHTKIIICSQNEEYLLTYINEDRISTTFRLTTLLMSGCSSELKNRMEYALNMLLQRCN
T17 sequence (O15075 whole entry): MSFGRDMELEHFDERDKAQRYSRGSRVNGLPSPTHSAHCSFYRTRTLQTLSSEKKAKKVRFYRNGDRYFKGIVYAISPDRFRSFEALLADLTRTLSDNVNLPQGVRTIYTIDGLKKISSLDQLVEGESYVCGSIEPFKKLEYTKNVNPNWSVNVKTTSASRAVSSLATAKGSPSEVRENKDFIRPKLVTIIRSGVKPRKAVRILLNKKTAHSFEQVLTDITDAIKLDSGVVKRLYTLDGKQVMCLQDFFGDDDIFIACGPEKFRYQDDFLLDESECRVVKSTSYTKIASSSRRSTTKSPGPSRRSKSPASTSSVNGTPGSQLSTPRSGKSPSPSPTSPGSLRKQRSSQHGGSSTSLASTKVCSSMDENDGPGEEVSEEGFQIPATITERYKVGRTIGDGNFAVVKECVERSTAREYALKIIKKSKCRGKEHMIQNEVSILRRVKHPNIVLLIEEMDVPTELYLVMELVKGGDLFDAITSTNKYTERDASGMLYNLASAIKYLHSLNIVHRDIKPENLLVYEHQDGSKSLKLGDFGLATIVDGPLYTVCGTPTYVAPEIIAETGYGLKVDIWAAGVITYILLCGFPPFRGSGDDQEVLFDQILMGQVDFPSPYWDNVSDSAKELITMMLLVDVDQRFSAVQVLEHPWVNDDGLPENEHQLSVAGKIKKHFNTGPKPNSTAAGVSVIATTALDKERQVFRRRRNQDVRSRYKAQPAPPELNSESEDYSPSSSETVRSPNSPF
T14 sequence (P11309 whole entry): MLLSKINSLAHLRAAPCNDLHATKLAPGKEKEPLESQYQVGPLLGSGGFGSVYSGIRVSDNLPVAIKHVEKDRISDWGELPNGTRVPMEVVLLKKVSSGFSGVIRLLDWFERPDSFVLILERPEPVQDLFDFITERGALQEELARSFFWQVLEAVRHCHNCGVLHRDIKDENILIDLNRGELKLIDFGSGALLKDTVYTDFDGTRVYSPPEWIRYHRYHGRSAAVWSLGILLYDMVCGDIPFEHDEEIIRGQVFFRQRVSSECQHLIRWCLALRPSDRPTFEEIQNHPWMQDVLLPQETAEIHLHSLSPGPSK

Q: For `O=C(/C=C/c1ccc(O)c(O)c1)CCCCn1ccc2c(O)cccc21` [Compound 13a, (E)-1-(3,4-dihydroxyphenyl)-7-(4-hydroxy-1H-indol-1-yl)hept-1-en-3-one], which GI50 (HCT-116) is on record?
A: 14.7 ± 0.8 µM

Q: And the GI50 (HT-29)?
A: 10.4 ± 0.6 µM

Q: What about the inhibition at 1 µM (FGFR1) of the same compound?
A: 3%

Q: And the inhibition at 1 µM (MARK3)?
A: 6%

Q: And the inhibition at 1 µM (AKT1 (PKB alpha))?
A: 2%

Q: And the inhibition at 1 µM (PAK2 (PAK65))?
A: 4%

Q: What about the inhibition at 1 µM (CSNK1G1 (CK1 gamma 1)) of the same compound?
A: 4%

Q: What about the inhibition at 1 µM (MAPK3 (ERK1)) of the same compound?
A: 6%

Q: What about the inhibition at 1 µM (CSNK1D (CK1 delta)) of the same compound?
A: 7%

Q: What about the inhibition at 1 µM (PLK2) of the same compound?
A: 16%

Q: And the inhibition at 1 µM (IKBKB (IKK beta))?
A: 8%

Q: And the inhibition at 1 µM (SRC)?
A: 0%

Q: And the inhibition at 1 µM (ERBB4 (HER4))?
A: 15%

Q: What about the inhibition at 1 µM (ROCK1) of the same compound?
A: 10%

Q: What about the inhibition at 1 µM (CDK2/cyclin A) of the same compound?
A: 0%

Q: What about the inhibition at 1 µM (PIM1) of the same compound?
A: 12%

Q: And the inhibition at 1 µM (PRKACA (PKA))?
A: 5%

Q: And the inhibition at 1 µM (MINK1)?
A: 13%

Q: What about the inhibition at 1 µM (DCAMKL1 (DCLK1)) of the same compound?
A: 1%

Q: What about the inhibition at 1 µM (CAMK2B (CaMKII beta)) of the same compound?
A: 19%

Q: What about the inhibition at 1 µM (DYRK1B) of the same compound?
A: 4%

Q: And the inhibition at 1 µM (HIPK1 (Myak))?
A: 2%

Q: What about the inhibition at 1 µM (STK3 (MST2)) of the same compound?
A: 0%

Q: And the inhibition at 1 µM (MKNK1 (MNK1))?
A: 8%

Q: What about the inhibition at 1 µM (IRAK4) of the same compound?
A: 4%

Q: What about the inhibition at 1 µM (PRKCA (PKC alpha)) of the same compound?
A: 13%

Q: What about the inhibition at 1 µM (MAP3K9 (MLK1)) of the same compound?
A: 2%

Q: What about the inhibition at 1 µM (LCK) of the same compound?
A: -6%
